Active and inactive are the calls of the source.
Columns and labels:
[1] = biological target: T1, Tyrosine-protein phosphatase non-receptor type 22 (Homo sapiens, UniProt Q9Y2R2); type: functional
T1 sequence (Q9Y2R2 whole entry): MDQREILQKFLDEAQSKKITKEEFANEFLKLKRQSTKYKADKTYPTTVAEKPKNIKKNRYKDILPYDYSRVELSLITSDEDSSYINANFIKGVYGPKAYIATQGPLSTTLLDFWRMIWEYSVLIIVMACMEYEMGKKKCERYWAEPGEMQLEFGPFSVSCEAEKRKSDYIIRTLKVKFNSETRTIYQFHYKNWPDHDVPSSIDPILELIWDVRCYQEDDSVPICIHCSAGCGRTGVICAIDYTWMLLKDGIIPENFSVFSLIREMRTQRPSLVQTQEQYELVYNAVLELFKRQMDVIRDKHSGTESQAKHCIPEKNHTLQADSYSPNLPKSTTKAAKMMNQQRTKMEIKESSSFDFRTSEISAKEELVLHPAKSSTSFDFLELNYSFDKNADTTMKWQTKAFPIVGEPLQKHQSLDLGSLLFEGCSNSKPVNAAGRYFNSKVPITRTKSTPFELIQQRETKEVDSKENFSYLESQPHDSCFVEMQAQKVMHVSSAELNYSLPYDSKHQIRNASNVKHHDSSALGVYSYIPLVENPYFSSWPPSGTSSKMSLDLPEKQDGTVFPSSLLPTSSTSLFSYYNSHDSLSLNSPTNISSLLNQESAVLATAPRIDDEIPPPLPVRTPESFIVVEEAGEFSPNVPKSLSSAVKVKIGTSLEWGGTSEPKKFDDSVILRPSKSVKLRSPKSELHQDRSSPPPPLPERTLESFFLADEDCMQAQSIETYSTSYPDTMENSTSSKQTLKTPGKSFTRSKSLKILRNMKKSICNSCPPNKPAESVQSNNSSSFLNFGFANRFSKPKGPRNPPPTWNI

[2] = biological target: T1, Tyrosine-protein phosphatase non-receptor type 22; type: functional; remark: listed apart in the source
[3] = biological target: T2, Tyrosine-protein phosphatase non-receptor type 7 (Homo sapiens, UniProt P35236); type: functional
T2 sequence (P35236 whole entry): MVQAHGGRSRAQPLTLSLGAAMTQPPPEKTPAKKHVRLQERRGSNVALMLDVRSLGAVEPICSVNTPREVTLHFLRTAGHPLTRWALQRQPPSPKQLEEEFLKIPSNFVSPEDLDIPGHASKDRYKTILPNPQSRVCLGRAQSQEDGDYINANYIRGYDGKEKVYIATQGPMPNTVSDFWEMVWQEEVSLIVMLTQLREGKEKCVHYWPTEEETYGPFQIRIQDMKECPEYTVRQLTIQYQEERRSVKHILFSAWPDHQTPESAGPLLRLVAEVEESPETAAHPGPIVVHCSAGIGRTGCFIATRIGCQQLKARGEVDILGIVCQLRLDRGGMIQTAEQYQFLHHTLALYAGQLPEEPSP

[4] = biological target: T3, Rac GTPase-activating protein 1 (Homo sapiens, UniProt Q9H0H5); test: blockers of MgcRacGAP-driven Rac1 GTP hydrolysis – biochemical, ADP Hunter fluorescence, primary and confirmatory, confirmation (AID 624330); type: functional
T3 sequence (Q9H0H5 whole entry): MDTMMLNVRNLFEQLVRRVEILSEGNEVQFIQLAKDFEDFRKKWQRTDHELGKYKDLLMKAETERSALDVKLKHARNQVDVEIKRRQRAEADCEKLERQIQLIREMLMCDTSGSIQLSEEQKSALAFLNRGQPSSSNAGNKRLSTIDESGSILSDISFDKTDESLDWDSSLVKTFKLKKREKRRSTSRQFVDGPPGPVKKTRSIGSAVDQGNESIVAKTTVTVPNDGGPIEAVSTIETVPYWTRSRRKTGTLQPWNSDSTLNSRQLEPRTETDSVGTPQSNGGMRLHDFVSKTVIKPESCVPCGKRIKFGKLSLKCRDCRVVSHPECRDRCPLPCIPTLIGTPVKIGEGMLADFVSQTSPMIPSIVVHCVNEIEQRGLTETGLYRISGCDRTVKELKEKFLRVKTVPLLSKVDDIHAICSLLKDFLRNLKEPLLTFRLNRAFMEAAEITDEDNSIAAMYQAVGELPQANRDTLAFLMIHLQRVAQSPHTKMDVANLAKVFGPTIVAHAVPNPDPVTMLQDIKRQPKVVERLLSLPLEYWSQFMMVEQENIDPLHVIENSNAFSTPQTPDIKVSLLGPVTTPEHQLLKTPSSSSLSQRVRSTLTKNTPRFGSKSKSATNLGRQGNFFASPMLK

[5] = biological target: T4, Kappa-type opioid receptor (Homo sapiens, UniProt P41145); type: functional
[6] = biological target: T4, Kappa-type opioid receptor; type: functional; remark: listed apart in the source
Vero [7] = test: cells; type: functional, cell-based; conditions: Chlorocebus sabaeus
Mu-type opioid receptor [8] = biological target: T5, Mu-type opioid receptor (Homo sapiens, UniProt P35372); test: HTS Image-Based Screen for Agonists of the MOR Receptor. [Related pubchem assays (depositor defined):AID1777, AID1785, AID1786, AID2133]; type: functional
Beta-galactosidase = Beta-galactosidase (Escherichia coli, UniProt Q8VNN2); type: functional
[9] = biological target: T6, Delta-type opioid receptor (Homo sapiens, UniProt P41143); test: HTS Image-Based Screen for Agonists of the DOR Receptor. [Related pubchem assays (depositor defined):AID1777, AID1786, AID2133]; type: functional
Vero [10] = test: cells; type: functional; conditions: Chlorocebus sabaeus
[11] = biological target: T6, Delta-type opioid receptor; test: HTS Image-Based Screen for Antagonists of the DOR Receptor. [Related pubchem assays (depositor defined):AID1777, AID1785, AID1786, AID2133]; type: functional
[12] = Luminescence Cell-Based Dose Response HTS to Identify Activators of Luciferase Translation or Activity in H4 […] Cells. [Related pubchem assays: 1829 (Project Summary), 1814 (Primary HTS)]; type: functional
[13] = Luminescence Cell-Based Dose Confirmation HTS to Identify Activators of 5'UTR Stem-Loop Driven Alpha-Synuclein mRNA Translation in H4 Neuroglioblastoma Cells. [Related pubchem assays: 1829 (Project Summary), 1814 (Primary HTS)]; type: functional
H4 = test: Luminescence Cell-Based Dose Response HTS to Identify Activators of 5'UTR Stem-Loop Driven Prion Protein mRNA Translation in H4 Neuroglioblastoma Cells. [Related pubchem assays: 1829 (Project Summary), 1814 (Primary HTS)]; type: functional; conditions: Homo sapiens
[14] = biological target: Sphingosine 1-phosphate receptor 4 (Homo sapiens, UniProt O95977); test: Fluorescence dose response cell-based high throughput screening assay for agonists of the Sphingosine 1-Phosphate Receptor 4 (S1P4). [Related pubchem assays: 1509 (Primary screen.), 1523 (Confirmation screen in triplicates.)]; type: functional
[15] = biological target: Sphingosine 1-phosphate receptor 1 (Homo sapiens, UniProt P21453); test: Fluorescence-based counterscreen assay for S1P4 agonists: Cell-based dose response high throughput screening assay to identify agonists of the Sphingosine 1-Phosphate Receptor 1 (S1P1). [Related pubchem assays (depositor defined):AID1509, AID1523, AID1801, AID463107, AID463118, AID463119, AID463122, AID463123, AID463129, AID463225, AID504400, AID504460]; type: functional
[16] = biological target: T4, Kappa-type opioid receptor; test: SAR analysis of small molecule agonists of the kappa opioid receptor via a luminescent beta-arrestin assay - Set 3. [Related pubchem assays (depositor defined):AID1777, AID1785, AID1786, AID1966, AID2133, AID2136, AID2284, AID2500]; type: functional
[17] = biological target: T4, Kappa-type opioid receptor; test: kappa opioid receptor activation by imaging – image-based, set 3, SAR follow-up (AID 488833); type: functional
[18] = biological target: T6, Delta-type opioid receptor; test: SAR Analysis of Agonists of the DOR Receptor using an Image-Based Assay - Set 3. [Related pubchem assays (depositor defined):AID1777, AID1786]; type: functional
Mu-type opioid receptor [19] = biological target: T5, Mu-type opioid receptor; test: SAR Analysis of Agonists of the MOR Receptor using an Image-Based Assay - Set 3. [Related pubchem assays (depositor defined):AID1777, AID1785, AID1786, AID1966, AID2133, AID2136, AID2284, AID2285, AID2352]; type: functional
[20] = biological target: T7, Replicative DNA helicase DnaB (Mycobacterium tuberculosis, UniProt P9WMR3); test: DnaB Intein secondary assay Measured in Biochemical System Using Plate Reader - 2047-04_Inhibitor_Dose_DryPowder_Activity. [Related pubchem assays (depositor defined):AID2223]
T7 sequence (P9WMR3 whole entry): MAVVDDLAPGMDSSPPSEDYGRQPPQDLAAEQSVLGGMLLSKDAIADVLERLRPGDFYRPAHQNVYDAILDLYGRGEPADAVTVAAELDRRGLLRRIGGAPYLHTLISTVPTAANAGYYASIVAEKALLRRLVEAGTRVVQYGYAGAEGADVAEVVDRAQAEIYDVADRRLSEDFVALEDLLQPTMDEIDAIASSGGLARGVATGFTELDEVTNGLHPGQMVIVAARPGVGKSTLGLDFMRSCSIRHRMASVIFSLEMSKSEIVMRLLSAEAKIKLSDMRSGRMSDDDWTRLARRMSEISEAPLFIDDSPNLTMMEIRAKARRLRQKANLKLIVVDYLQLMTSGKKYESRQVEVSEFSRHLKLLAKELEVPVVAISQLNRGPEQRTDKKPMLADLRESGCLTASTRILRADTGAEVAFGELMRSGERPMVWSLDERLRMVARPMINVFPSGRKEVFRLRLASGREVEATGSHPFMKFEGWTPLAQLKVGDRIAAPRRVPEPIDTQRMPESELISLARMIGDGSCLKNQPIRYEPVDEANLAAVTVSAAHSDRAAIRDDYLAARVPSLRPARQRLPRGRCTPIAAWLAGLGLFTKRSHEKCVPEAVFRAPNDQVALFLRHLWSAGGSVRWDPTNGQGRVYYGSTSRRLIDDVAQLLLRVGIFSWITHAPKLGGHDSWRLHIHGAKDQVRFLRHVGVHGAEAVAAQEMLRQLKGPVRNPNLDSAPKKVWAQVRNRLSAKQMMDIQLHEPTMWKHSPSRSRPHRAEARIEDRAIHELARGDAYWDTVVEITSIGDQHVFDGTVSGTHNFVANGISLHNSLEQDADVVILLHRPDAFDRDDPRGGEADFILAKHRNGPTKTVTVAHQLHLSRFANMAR

[21] = biological target: T7, Replicative DNA helicase DnaB; test: DnaB intein splicing inhibitors, dose response, biochemical, cell-free fluorescence (AID 449749); type: functional
Protein RecA [22] = biological target: T8, Protein RecA (Mycobacterium tuberculosis, UniProt P9WHJ3); test: Fluorescence Cell-Free Homogeneous Dose Retest to Identify Inhibitors of RecA-Intein Splicing Activity. [Related pubchem assays (depositor defined):AID2097, AID2223, AID489010, AID492950]; type: functional
T8 sequence (P9WHJ3 whole entry): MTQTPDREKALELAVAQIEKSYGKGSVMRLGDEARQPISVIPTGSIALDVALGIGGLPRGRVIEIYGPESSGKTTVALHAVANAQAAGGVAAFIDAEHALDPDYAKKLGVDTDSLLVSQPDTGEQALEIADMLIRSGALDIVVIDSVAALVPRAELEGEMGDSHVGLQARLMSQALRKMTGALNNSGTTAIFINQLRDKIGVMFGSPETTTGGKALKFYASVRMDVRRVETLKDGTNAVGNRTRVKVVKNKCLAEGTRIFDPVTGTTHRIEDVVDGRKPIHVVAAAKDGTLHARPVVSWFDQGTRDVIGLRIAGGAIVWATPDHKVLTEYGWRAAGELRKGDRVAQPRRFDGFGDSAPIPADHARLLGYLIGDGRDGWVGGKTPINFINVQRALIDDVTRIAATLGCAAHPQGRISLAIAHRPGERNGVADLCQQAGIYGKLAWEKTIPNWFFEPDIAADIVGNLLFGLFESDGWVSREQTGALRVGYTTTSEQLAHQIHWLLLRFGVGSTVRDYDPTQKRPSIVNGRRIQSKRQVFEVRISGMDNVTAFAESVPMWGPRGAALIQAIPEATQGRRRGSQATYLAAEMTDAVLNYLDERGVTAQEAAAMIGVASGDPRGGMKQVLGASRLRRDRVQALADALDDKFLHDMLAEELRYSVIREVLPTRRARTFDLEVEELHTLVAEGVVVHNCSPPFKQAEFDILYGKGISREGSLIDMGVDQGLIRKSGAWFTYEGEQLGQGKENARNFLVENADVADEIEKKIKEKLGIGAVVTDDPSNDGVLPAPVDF

cells = type: functional
[23] = compounds quenching green fluorescent protein signal – biochemical, plate reader, dry powder, artefact control, dose response (AID 493243)
Protein RecA [24] = biological target: T8, Protein RecA; test: RecA Intein Measured in Biochemical System Using Plate Reader - 2047-02_Inhibitor_Dose_DryPowder_Activity. [Related pubchem assays (depositor defined):AID2223]; parameters: species or system Mycobacterium tuberculosis H37Rv

T6 sequence (P41143 whole entry): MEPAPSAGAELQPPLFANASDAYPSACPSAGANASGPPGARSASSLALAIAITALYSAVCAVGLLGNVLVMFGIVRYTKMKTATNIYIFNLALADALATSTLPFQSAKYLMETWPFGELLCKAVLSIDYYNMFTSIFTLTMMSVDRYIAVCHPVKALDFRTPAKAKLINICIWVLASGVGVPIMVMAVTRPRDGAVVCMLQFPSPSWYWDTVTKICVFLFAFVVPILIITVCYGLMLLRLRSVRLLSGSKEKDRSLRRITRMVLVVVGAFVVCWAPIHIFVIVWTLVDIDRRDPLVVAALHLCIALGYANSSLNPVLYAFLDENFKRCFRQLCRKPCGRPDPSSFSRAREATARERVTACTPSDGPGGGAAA
T4 sequence (P41145 whole entry): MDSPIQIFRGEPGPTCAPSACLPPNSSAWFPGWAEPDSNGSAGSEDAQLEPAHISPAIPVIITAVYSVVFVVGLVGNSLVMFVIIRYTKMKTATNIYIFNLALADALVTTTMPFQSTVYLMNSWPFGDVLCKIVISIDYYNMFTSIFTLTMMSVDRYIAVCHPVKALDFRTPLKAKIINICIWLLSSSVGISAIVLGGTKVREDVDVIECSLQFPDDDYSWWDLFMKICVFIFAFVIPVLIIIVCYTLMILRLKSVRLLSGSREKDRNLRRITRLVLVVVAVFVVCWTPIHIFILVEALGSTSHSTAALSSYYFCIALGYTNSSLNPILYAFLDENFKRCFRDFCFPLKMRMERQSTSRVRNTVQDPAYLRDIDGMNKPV
T5 sequence (P35372 whole entry): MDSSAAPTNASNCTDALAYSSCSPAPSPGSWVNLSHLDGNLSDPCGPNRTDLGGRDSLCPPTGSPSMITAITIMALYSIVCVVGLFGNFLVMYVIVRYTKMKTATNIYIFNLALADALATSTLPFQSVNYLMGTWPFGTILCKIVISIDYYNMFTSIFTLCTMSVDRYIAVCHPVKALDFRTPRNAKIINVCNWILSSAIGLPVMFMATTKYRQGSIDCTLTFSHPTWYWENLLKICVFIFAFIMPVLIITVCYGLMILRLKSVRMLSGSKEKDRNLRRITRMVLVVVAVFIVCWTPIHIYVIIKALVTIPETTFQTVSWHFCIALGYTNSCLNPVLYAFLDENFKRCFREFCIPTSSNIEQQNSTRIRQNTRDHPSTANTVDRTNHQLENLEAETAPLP
Chain of Beta-galactosidase (Q8VNN2 whole entry): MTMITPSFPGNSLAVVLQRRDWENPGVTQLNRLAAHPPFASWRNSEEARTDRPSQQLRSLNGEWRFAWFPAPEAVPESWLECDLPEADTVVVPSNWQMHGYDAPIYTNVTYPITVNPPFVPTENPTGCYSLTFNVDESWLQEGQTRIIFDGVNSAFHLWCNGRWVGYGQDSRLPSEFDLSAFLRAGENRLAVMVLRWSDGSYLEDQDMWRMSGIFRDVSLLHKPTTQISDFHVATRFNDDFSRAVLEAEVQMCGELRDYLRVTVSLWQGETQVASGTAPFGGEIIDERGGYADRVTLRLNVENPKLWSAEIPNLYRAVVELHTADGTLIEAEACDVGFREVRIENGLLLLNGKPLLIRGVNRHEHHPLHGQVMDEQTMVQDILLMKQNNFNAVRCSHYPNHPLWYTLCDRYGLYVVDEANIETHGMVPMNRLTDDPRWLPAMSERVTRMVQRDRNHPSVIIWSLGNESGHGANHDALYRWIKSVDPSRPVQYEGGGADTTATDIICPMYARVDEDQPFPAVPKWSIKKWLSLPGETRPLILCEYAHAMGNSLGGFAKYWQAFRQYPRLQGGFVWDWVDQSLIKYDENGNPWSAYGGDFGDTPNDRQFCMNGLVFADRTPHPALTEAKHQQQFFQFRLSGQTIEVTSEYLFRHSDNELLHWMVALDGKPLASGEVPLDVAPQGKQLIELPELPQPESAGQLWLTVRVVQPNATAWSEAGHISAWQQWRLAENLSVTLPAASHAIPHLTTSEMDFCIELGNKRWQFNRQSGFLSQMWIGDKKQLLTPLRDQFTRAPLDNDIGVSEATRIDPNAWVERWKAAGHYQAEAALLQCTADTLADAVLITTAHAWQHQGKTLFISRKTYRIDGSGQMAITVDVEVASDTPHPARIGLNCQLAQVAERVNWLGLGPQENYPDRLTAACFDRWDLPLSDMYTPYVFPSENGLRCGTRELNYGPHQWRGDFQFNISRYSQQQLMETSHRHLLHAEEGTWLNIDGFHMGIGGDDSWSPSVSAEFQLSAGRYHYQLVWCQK
Chain of Sphingosine 1-phosphate receptor 1 (P21453 whole entry): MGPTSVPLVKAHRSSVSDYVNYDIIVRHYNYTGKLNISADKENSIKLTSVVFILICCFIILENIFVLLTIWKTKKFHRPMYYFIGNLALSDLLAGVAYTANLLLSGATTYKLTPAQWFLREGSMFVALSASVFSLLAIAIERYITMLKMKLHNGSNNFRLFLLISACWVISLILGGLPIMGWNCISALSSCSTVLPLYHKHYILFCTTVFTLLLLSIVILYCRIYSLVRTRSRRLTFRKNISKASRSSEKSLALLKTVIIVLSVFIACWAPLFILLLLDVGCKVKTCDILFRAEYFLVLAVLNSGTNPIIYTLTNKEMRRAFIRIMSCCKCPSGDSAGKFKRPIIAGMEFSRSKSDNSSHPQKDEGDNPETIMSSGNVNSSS
Chain of Sphingosine 1-phosphate receptor 4 (O95977 whole entry): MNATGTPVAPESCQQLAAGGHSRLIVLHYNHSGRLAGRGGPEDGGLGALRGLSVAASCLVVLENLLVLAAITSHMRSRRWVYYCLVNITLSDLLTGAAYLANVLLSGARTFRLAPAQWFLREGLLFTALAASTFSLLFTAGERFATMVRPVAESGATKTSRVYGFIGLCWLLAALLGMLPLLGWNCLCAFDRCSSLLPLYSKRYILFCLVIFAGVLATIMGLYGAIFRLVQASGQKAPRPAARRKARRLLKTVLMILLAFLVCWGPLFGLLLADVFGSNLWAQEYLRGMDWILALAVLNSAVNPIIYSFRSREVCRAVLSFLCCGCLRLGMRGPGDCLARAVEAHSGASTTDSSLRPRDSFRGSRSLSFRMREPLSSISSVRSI

With `COc1ccc(C2SCC(=O)N2CCCN(C)C)cc1` (configuration not stated) as the molecule, how does the IC50 [1] read?
Its IC50 is > 79.4 µM (inactive).

And the IC50 [2]?
Its IC50 is > 79.4 µM (inactive).

And the IC50 [3]?
The IC50 was > 79.4 µM (inactive).

What does the source list for `COc1cc(/C=C/c2ccc3cccc(O)c3n2)ccc1O`?
IC50 [4]: 72.4 µM (active); IC50 [5]: > 32 µM; IC50 [6]: 11.9 µM (active); IC50 (Vero [7]): > 25 µM (active); EC50 (Mu-type opioid receptor [8]): > 32 µM (inactive); EC50 (Beta-galactosidase): > 31.5 µM (inactive); EC50 [9]: > 32 µM (inactive); CC50 (Vero [10]): 12.4 µM (active); IC50 [11]: > 32 µM (inactive)

Which results are given for `CC(=O)Oc1ccc2cc(-c3nc4ccccc4n3C)c(=O)oc2c1`?
EC50 [12]: 53.2 µM (active); EC50 [13]: 94.4 µM (active); EC50 (H4): 4.66 µM (active); EC50 [14]: 191 µM (not active); EC50 [15]: > 49.8 µM (inactive)

Which results are given for `CC(=O)Oc1ccc(CSc2nnc(-c3ccccn3)n2Cc2cccs2)cc1`?
EC50 [16]: > 20 µM (inactive); EC50 [17]: > 32 µM (inactive); EC50 [18]: > 32 µM (inactive); EC50 (Mu-type opioid receptor [19]): > 32 µM (inactive)

For `C/C(=N\NC(=O)c1ccncc1)c1cc2ccccc2oc1=O`, which AC50 [20] is on record?
Its AC50 is 36.9 µM (active).

And the AC50 [21]?
The AC50 was 2.77 µM (active).

What about the EC50 (Protein RecA [22]) of the same molecule?
The EC50 was 2.86 µM (active).

What about the IC50 (cells) of the same molecule?
The IC50 was 0.55 µM (active).

And the AC50 [23]?
Its AC50 is 218 µM (active).

And the AC50 (Protein RecA [24])?
The AC50 was 3.08 µM (active).

— ChEMBL document CHEMBL1201862, “PubChem BioAssay data set” (2004)
